# Laboratory results reported in paper PMC5895803, “Inhibition of cancer stem cell like cells by a synthetic retinoid” (Nature Communications, 2018).
# Legend:
# melanoma TRCs = tested on: melanoma TRCs; set-up: method as in PMID 25099074; settings: high concentrations (1 and 100 μM); cited from earlier work
# [1] = set-up: method as in doi:10.1016/j.jaad.2003.11.002; settings: cited from earlier work
# CYP 2C19 = molecular target: T1, CYP 2C19 (Homo sapiens, UniProt P33261); test: Cytochromes enzyme inhibition assay, human liver microsomes; format: in vitro ADME; settings: substrate S-mephenytoin (35 µM)
# T1 construct: from tissue; host or cells: human liver microsomes
# T1 sequence (P33261 whole entry): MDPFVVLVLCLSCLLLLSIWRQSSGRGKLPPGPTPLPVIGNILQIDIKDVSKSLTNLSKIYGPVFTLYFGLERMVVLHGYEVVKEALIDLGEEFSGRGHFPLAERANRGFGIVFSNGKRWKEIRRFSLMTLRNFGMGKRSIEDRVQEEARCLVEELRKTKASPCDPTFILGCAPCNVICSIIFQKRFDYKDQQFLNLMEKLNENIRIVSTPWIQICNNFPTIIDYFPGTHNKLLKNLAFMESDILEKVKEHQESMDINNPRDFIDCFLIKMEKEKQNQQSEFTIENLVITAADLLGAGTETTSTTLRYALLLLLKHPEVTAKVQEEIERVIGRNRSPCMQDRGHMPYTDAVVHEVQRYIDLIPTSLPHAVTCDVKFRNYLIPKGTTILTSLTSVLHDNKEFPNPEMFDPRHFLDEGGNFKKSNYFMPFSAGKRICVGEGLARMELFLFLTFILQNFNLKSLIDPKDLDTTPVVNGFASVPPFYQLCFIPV
# B16-F1 TRCs [2] = test: Colony growth of B16-F1 TRCs in 90-Pa 3D soft fibrin gels; format: cell-based, murine; settings: for Rescue of TRC growth from inhibitory effects of WYC-209 by pretreatment: pretreated 3 h before 0.1 or 1 μM WYC-209, day 5; for Rescue of TRC growth from inhibitory effects of Tazarotene by pretreatment: pretreated 3 h before 0.1 or 1 μM Tazarotene; for inhibition at 10 µM: B16-F1, 10 μM
# [3] = tested on: human malignant melanoma A375; test: Colony growth of A375 TRCs in 90-Pa fibrin gels; format: cell-based; settings: pretreated 3 h before 0.1 or 1 μM WYC-209, day 7
# Experimental: Salmon fibrinogen and thrombin were purchased from Reagent Proteins (CA, USA). 3D fibrin gels were prepared as described previously[5],[6]. In brief, fibrinogen was diluted into 2 mg mL^−1 with T7 buffer (pH 7.4, 50 mM Tris, 150 mM NaCl). Cells were detached from 2D rigid dishes and cell density was adjusted to 10^4 cells per mL. Fibrinogen and cell solution mixture were made by mixing the same volume of fibrinogen solution and cell solution, resulting in 1 mg mL^−1 fibrinogen and 5000 cells per mL in the mixture fibrin gels. A volume of 50 μL cell/fibrinogen mixture was seeded into each well of 96-well plate and mixed well with pre-added 1 μL thrombin (100 U mL^−1). The cell culture plate was then incubated in 37 °C cell culture incubator for 10 min. Finally, 200 μL of DMEM medium containing 10% FBS and antibiotics was added.
# B16-F1 TRCs [4] = test: Cell cycle analysis (BrdU flow cytometry), S phase of TRCs; format: cell-based, murine; settings: 10 μM, 24 hours
# Experimental: For Annexin-V and PI staining to quantify cell apoptosis, treated TRCs were isolated from 3D fibrin gel by using 5 mg mL^−1 Dispase II (Sigma), cells were labeled with FITC-conjugated Annexin-V and PI according to the manufacturer’s instruction (Biolegend). Data were acquired on a BD Cantoll (BD biosciences) and analyzed with FlowJo software. For BrdU staining to quantify cell proliferation, cells were labeled with FITC-conjugated anti-BrdU antibody according to the manufacturer’s instruction (FITC BrdU Flow Kit, BD Biosciences) and then data were acquired on an Accuri C6 (BD Biosciences) and analyzed with BD Accuri C6 software.
# Supplementary Figure 13. WYC-209 blocks S phase of TRCs. Different cancer cell lines cultured in 3D soft fibrin gel on day 0, then treated with 0.1, 1, or 10 μM WYC-209, WYC-209A, WYC-209B on day 4, isolated cells after 24 hours and labeled with FITC-conjugated anti-BrdU antibody for cell cycle analysis, 10 μM ATRA and Tazarotne as positive controls. (a) Representative images of flow cytometry in different conditions. (b) Quantification of S phase ratio in different conditions. Mean ± s.e.m.; n=3 independent experiments; * P<0.05; ** P<0.01; *** P<0.001 (Student’s t-test).
# (1 picture or pasted object on this page, not shown here)
# mouse RARs = molecular target: mouse RARs; set-up: method as in earlier work; settings: ref 1 (supplement); read-out: published Kd values to mouse RARs; cited from earlier work
# Water solubility = settings: pH 7.4, aqueous buffer, kinetic from dmso stock
# [5] = Mus musculus, treated on day 0, day 5
structure (smiles),measurement,setting,value
COc1cccc2c1C(=O)c1c(O)c3c(c(O)c1C2=O)C[C@@](O)(C(=O)CO)C[C@@H]3O[C@H]1C[C@H](N)[C@H](O)[C@H](C)O1 [doxorubicin],TRCs not killed,melanoma TRCs,20–30%
CC1(C)CC[S+]([O-])c2ccc(C#Cc3ccc(C(=O)O)cn3)cc21 (centres unmarked) [AGN 190844],Activity after oxidation of the sulfur atom on Tazarotene,[1],loses its activity
"COc1ccc2[nH]c([S+]([O-])Cc3ncc(C)c(OC)c3C)nc2c1 (centres unmarked) [omeprazole, reference compound]",IC50,CYP 2C19,4.99 µM
"CCc1ccc(C2=CC(C)(C)Sc3ccc(C#Cc4ccc(C(=O)O)cc4)cc32)cc1 [AGN-194310, reference compound]",Rescue of TRC growth from inhibitory effects of WYC-209 by pretreatment,B16-F1 TRCs [2],rescued the TRC growth
"COC(=O)CC[C@H](NC(=O)[C@H](CC(=O)OC)NC(=O)OCc1ccccc1)C(=O)N[C@H](C(=O)N[C@@H](CC(=O)OC)C(=O)CF)C(C)C [z-DEVD-FMK, reference compound]",Rescue of A375 TRC growth from WYC-209 inhibition by pretreatment,[3],substantially rescued growth
same,Rescue of TRC growth from inhibitory effects of Tazarotene by pretreatment,B16-F1 TRCs [2],could not rescue growth
same,Rescue of TRC growth from inhibitory effects of WYC-209 by pretreatment,B16-F1 TRCs [2],substantially rescued growth
"CC1(C)CC=C(c2cnc3ccccc3c2)c2cc(C(=O)Nc3ccc(C(=O)O)cc3)ccc21 [BMS195614, reference compound]",Impact of antagonist alone on TRC growth,B16-F1 TRCs [2],no impact on TRC growth
same,Rescue of TRC growth from inhibitory effects of Tazarotene by pretreatment,B16-F1 TRCs [2],rescuing effect was minimal
same,Rescue of TRC growth from inhibitory effects of WYC-209 by pretreatment,B16-F1 TRCs [2],rescued the TRC growth
"CC1=C(/C=C/C(C)=C/C=C/C(C)=C/C(=O)O)C(C)(C)CCC1 [ATRA, all-trans retinoic acid, reference compound]",Decrease of S phase of TRCs,B16-F1 TRCs [4],~55%
same,inhibition at 10 µM,B16-F1 TRCs [2]; [5],80%
same,Kd,mouse RARs,0.0002 to 0.00036 µM
"COCCOCOc1cc2ccc(-c3ccc(C(=O)O)cc3)cc2cc1C12CC3CC(CC(C3)C1)C2 [CD2665, reference compound]",Impact of antagonist alone on TRC growth,B16-F1 TRCs [2],no impact on TRC growth
same,Rescue of TRC growth from inhibitory effects of Tazarotene by pretreatment,B16-F1 TRCs [2],rescuing effect was minimal
same,Rescue of TRC growth from inhibitory effects of WYC-209 by pretreatment,B16-F1 TRCs [2],rescued the TRC growth
N.N.[Cl][Pt][Cl] [cisplatin],TRCs not killed,melanoma TRCs,20–30%
"CC(C)NCC(O)COc1cccc2ccccc12 (centres unmarked) [Propranolol, reference compound]",solubility at 1 h,Water solubility,> 100 µM
"CC(=O)N1CCN(c2ccc(OCC3COC(Cn4ccnc4)(c4ccc(Cl)cc4Cl)O3)cc2)CC1 (centres unmarked) [Ketoconazole, reference compound]",solubility at 1 h,Water solubility; PBS (pH 7.4),49.3 µM
"CCOC(=O)c1ccc(C#Cc2ccc3c(c2)C(C)(C)CCS3)nc1 [Tazarotene, reference compound]",Decrease of S phase of TRCs,B16-F1 TRCs [4],~ 45%
same,Growth inhibition at 10 μM,"B16-F1 TRCs [2]; 10 μM, treated on day 0, day 5, 10 µM",71%
same,inhibition at 10 µM,B16-F1 TRCs [2]; [5],71.2%
same,IC50,"B16-F1 TRCs [2]; Mus musculus, B16-F1 in 90-Pa fibrin gels, treated on day 0, colony size on day 5",1.72 µM
